Measurements: PubChem BioAssay AID1845203 (Molecular Pharmacology Branch, DTP, NCI, 2023)

System: G-401 tumor spheroids, viability % test/control
Experiment: Anticancer human tumor G-401 cell line growth inhibition;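 note: spheroids exposed to compound for 7 days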;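 for viability, T/C: 100% = DMSO vehicle-treated spheroids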
Details: spheroids with HUVEC and MSC; for IC50: curve of first compound; for viability, T/C: stronger effect = lower value
How it was run: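 Single agents and combinations were tested on spheroids built from tumor cells plus HUVEC and hMSC, at half-log dilutions starting at or near clinical Cmax, else 10 microM; final DMSO 0.25% (v/v).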

[1] = second compound 30 pM, first compound 0.0316 µM
[2] = second compound 30 pM, first compound 0.1 µM
[3] = second compound 30 pM, first compound 0.316 µM
[4] = second compound 30 pM, first compound 1 µM
[5] = second compound 30 pM, first compound 3.16 µM
[6] = second compound 30 pM, first compound 10 µM
[7] = second compound 94.9 pM, first compound 0.0316 µM
[8] = second compound 94.9 pM, first compound 0.1 µM
[9] = second compound 94.9 pM, first compound 0.316 µM
[10] = second compound 94.9 pM, first compound 1 µM
[11] = second compound 94.9 pM, first compound 3.16 µM
[12] = second compound 94.9 pM, first compound 10 µM
[13] = second compound 0.0003 µM, first compound 0.0316 µM
[14] = second compound 0.0003 µM, first compound 0.1 µM
[15] = second compound 0.0003 µM, first compound 0.316 µM
[16] = second compound 0.0003 µM, first compound 1 µM
[17] = second compound 0.0003 µM, first compound 3.16 µM
[18] = second compound 0.0003 µM, first compound 10 µM
[19] = second compound 0.000949 µM, first compound 0.0316 µM
[20] = second compound 0.000949 µM, first compound 0.1 µM
[21] = second compound 0.000949 µM, first compound 0.316 µM
[22] = second compound 0.000949 µM, first compound 1 µM
[23] = second compound 0.000949 µM, first compound 3.16 µM
[24] = second compound 0.000949 µM, first compound 10 µM
[25] = second compound 0.003 µM, first compound 0.0316 µM
[26] = second compound 0.003 µM, first compound 0.1 µM
[27] = second compound 0.003 µM, first compound 0.316 µM
[28] = second compound 0.003 µM, first compound 1 µM
[29] = second compound 0.003 µM, first compound 3.16 µM
[30] = second compound 0.003 µM, first compound 10 µM

Compound | IC50 (second compound 30 pM) [nM] | IC50 (second compound 94.9 pM) [nM] | IC50 (second compound 0.0003 µM) [nM] | IC50 (second compound 0.000949 µM) [nM] | IC50 (second compound 0.003 µM) [nM] | viability, T/C [1] [%] | viability, T/C [2] [%] | viability, T/C [3] [%] | viability, T/C [4] [%] | viability, T/C [5] [%] | viability, T/C [6] [%] | viability, T/C [7] [%] | viability, T/C [8] [%] | viability, T/C [9] [%] | viability, T/C [10] [%] | viability, T/C [11] [%] | viability, T/C [12] [%] | viability, T/C [13] [%] | viability, T/C [14] [%] | viability, T/C [15] [%] | further results
CC1COCCN1c1cc(-c2ccnn2C)c2ccnc(-c3ccn[nH]3)c2n1 (stereo not given) + COc1cc2c(cc1O)CCNC21CSC2c3c(OC(C)=O)c(C)c4c(c3C(COC1=O)N1C(O)C3Cc5cc(C)c(OC)c(O)c5C(C21)N3C)OCO4 | 39.6 | < 31.6 | < 31.6 | < 31.6 | < 31.6 | 57.3 | 22.1 | 12.5 | 12.3 | 14.6 | 16.3 | 32 | 16.9 | 10.8 | 11.2 | 12.9 | 15.8 | 13.1 | 10.8 | 9.87 | viability, T/C [16]: 9.44%; viability, T/C [17]: 11%; viability, T/C [18]: 14%; viability, T/C [19]: 7.87%; viability, T/C [20]: 7.07%; viability, T/C [21]: 6.97%; viability, T/C [22]: 4.82%; viability, T/C [23]: 3.79%; viability, T/C [24]: 1.07%; viability, T/C [25]: 0.15%; viability, T/C [26]: 0.14%; viability, T/C [27]: 0.12%; viability, T/C [28]: 0.11%; viability, T/C [29]: 0.11%; viability, T/C [30]: 0.17%
COc1cc(C)[nH]c(=O)c1CN1CCc2c(Cl)cc(C(OC)C3COC3)c(Cl)c2C1=O (stereo not given) + COc1cc2c(cc1O)CCNC21CSC2c3c(OC(C)=O)c(C)c4c(c3C(COC1=O)N1C(O)C3Cc5cc(C)c(OC)c(O)c5C(C21)N3C)OCO4 | 106 | 87 | < 31.6 | < 31.6 | < 31.6 | 83.1 | 50.9 | 33.9 | 28.1 | 26.9 | 26.1 | 74.1 | 44.6 | 36.1 | 27.3 | 22.7 | 22.8 | 33.1 | 30.2 | 23 | viability, T/C [16]: 20.4%; viability, T/C [17]: 18.4%; viability, T/C [18]: 18.1%; viability, T/C [19]: 4.72%; viability, T/C [20]: 5.11%; viability, T/C [21]: 3.78%; viability, T/C [22]: 4%; viability, T/C [23]: 5.07%; viability, T/C [24]: 3.13%; viability, T/C [25]: 0.12%; viability, T/C [26]: 0.12%; viability, T/C [27]: 0.11%; viability, T/C [28]: 0.11%; viability, T/C [29]: 0.11%; viability, T/C [30]: 0.18%
Cc1cc(C)c(CNC(=O)c2cc(-c3ccc(CN4CCOCC4)cc3)cc3c2cnn3C2CCCC2)c(=O)[nH]1 + COc1cc2c(cc1O)CCNC21CSC2c3c(OC(C)=O)c(C)c4c(c3C(COC1=O)N1C(O)C3Cc5cc(C)c(OC)c(O)c5C(C21)N3C)OCO4 | > 10000 | 7070 | < 31.6 | < 31.6 | < 31.6 | 107 | 109 | 111 | 119 | 97.7 | 53.9 | 93.3 | 110 | 106 | 107 | 81 | 36.6 | 43.3 | 46.5 | 37.9 | viability, T/C [16]: 30%; viability, T/C [17]: 25.2%; viability, T/C [18]: 17.4%; viability, T/C [19]: 9.71%; viability, T/C [20]: 9.04%; viability, T/C [21]: 6.87%; viability, T/C [22]: 6.92%; viability, T/C [23]: 6.27%; viability, T/C [24]: 4.18%; viability, T/C [25]: 11.6%; viability, T/C [26]: 0.13%; viability, T/C [27]: 0.27%; viability, T/C [28]: 0.15%; viability, T/C [29]: 0.54%; viability, T/C [30]: 0.2%
[2H]c1nc(C)nc([2H])c1-c1cc(NC[C@@H](C)c2cccc3c(C(=O)NC)ccnc23)ncn1 + COc1cc2c(cc1O)CCNC21CSC2c3c(OC(C)=O)c(C)c4c(c3C(COC1=O)N1C(O)C3Cc5cc(C)c(OC)c(O)c5C(C21)N3C)OCO4 | > 10000 | > 10000 | < 31.6 | < 31.6 | < 31.6 | 103 | 103 | 106 | 105 | 98.6 | 106 | 88.6 | 87.5 | 93 | 93.1 | 93.9 | 91.4 | 36.1 | 39.9 | 40 | viability, T/C [16]: 42.6%; viability, T/C [17]: 31.8%; viability, T/C [18]: 37.4%; viability, T/C [19]: 7.05%; viability, T/C [20]: 5.74%; viability, T/C [21]: 8.4%; viability, T/C [22]: 8.02%; viability, T/C [23]: 6.93%; viability, T/C [24]: 3.48%; viability, T/C [25]: 0.16%; viability, T/C [26]: 0.17%; viability, T/C [27]: 0.14%; viability, T/C [28]: 0.13%; viability, T/C [29]: 0.14%; viability, T/C [30]: 0.22%
